The text below walks through data of patent US11400130B2, “Inhibitors for proliferating cell nuclear antigen and uses” (Purdue Research Foundation, priority 2015, dated 2022).

Peptide text beside a SMILES is read from it. * marks the point of attachment. 5FAM = O=C1OC2(c3ccc(O)cc3Oc3cc(O)ccc32)c2ccc(C(=O)*)cc21; Ahx = NCCCCCC(=O)O

Test [1] has as its target T1, PCNA (Homo sapiens, UniProt P12004).
T1 construct: made in house; host or cells: E. coli BL21 (DE3)
The test can be described thus: Fluorescence polarization competition assay (displacement of FAM-PL from His-tagged PCNA). The class given is binding. Conditions: for Ki: calculated from IC50 using equation 5 (modified Cheng-Prusoff), 95% confidence interval around the mean; for IC50: disruption of PCNA / FAM-PL binding, values are 95% confidence interval around the mean; for Disruption of PCNA-PL peptide binding by individual fragments: individual peptoid fragments screened alone, dose response (FIG. 7). Here is the method: The inclusion of PCNA was included in the overall calculations of Ki values.
Anisotropy was converted to fractional occupancy, and IC50 values were determined for each peptoid by performing non-linear regression fits of each dose response curve using equation 4. Inhibition constants (Ki values) were calculated from the resultant IC50 values using equation 5 (Table 2).
Fluorescence Polarization Competition Assay. […] The plate was allowed to incubate at room temperature in the dark for 30 minutes prior to fluorescent measurement. […] Anisotropy values were converted to fractional occupancy using equation 2, and IC50 values were calculated by fitting the data to equation 4:
[formula] wherein n is the Hill slope.

Test [2] concerns the target T1, PCNA. The test can be described thus: Fluorescence polarization binding assay (PCNA titration for affinity of FAM-PL). Conditions: fixed FAM-PL (5 nM), two-fold increasing recombinant His-tagged PCNA, non-linear regression; read-out: Kd of FAM-PL peptide for PCNA. How it is done:
After synthesis and purification, peptoids were screened in a fluorescence polarization (FP) assay to find ligands that disrupted the interaction between His-tagged PCNA and fluorescein-labeled Pogo Ligase peptide (FAM-PL) (Kontopidis, G., et al. Proc. Natl. Acad. Sci. U.S.A 2005, 102 (6), 1871-1876). In the design of the assay, conditions were adopted from Pedley et al., 2016, to improve the dynamic range between bound and unbound FAM-PL. While an acceptable Z-score was determined using the original 10 nM peptide and 100 nM PCNA (FIG. 4), an improved dynamic range was established by adjusting the ligand and receptor concentrations. […] Because more than 80% of the peptide was bound at a PCNA concentration of […] this protein-receptor concentration was selected for use in subsequent displacement assays. The inclusion of PCNA was included in the overall calculations of Ki values.
Fluorescence Polarization Binding Assay. […] Fluorescence polarization and resultant anisotropy were measured on a BioTek Synergy 4 Multi-Detection Microplate Reader using an excitation filter of 485 nm and an emission filter of 530 nm, each with a 20 nm band-pass. […]
FO values were analyzed using non-linear regression statistics in OriginPro 2015, representing them as the mean±standard error of the mean (Y), and plotting them as a function of the monomeric PCNA protein concentration (X). […]
A general note: Polarisation of emitted light reports the rotation of a fluorescent probe.

T1 sequence (P12004 with tags, fused parts or gaps): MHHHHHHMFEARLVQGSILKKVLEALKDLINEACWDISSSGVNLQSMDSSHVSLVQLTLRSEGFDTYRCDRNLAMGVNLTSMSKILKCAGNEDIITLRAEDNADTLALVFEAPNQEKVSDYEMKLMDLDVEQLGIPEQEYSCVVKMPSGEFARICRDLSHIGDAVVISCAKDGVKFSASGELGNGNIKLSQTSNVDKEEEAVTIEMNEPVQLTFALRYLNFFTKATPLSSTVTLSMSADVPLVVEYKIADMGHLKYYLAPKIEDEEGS

For orientation: Ki means a measure of affinity in units of concentration, obtained from inhibition or displacement. In general, IC50 refers to the concentration that gives 50% inhibition. Higher therefore signals a need for much substance. In the case of `NCCCCNCC(=O)N(CC(=O)N(CC(N)=O)Cc1ccc(CN)cc1)Cc1ccc2c(c1)OCO2` [NLys-NPip-NMma], on PCNA [1], the inhibitory constant (Ki) is 1240 ± 190 nM and the half-inhibitory concentration (IC50) was 12900 ± 1970 nM.

In the case of `CC(C)(C)OC(=O)c1ccc(CN)cc1` [NBza], the “Disruption of PCNA-PL peptide binding by individual fragments” value (from here on “Disruption of PCNA-PL peptide binding”) at PCNA [1] is “none of the fragments showed any evidence of inhibition”.

Take `NCc1ccc(CN(CC(N)=O)C(=O)CN(CCO)C(=O)CN[C@H](CO)Cc2cc(I)c(Oc3ccc(O)cc3)c(I)c2)cc1` [T2AA-NEal-NMma]: on PCNA [1], the Ki was 114 ± 23.1 nM and the half-inhibitory concentration (IC50) worked out at 1180 ± 240 nM.

As for `CC(C)(C)[Si](C)(C)OCc1ccc(CN)cc1` [NBal], at PCNA [1], the “Disruption of PCNA-PL peptide binding” value was “none of the fragments showed any evidence of inhibition”.

Usually Kd stands for the concentration at which binding is half-saturated. With `CC[C@H](C)[C@H](NC(=O)[C@H](CCCCN)NC(=O)[C@H](CCCCN)NC(=O)[C@H](CCC(N)=O)NC(=O)[C@H](CC(C)C)NC(=O)[C@@H](NC(=O)[C@H](C)NC(=O)[C@H](CO)NC(=O)CCCCCNC(=O)c1ccc2c(c1)C(=O)OC21c2ccc(O)cc2Oc2cc(O)ccc21)C(C)C)C(=O)N[C@H](C(=O)N[C@@H](CC(=O)O)C(=O)N[C@@H](Cc1ccc(O)cc1)C(=O)N[C@@H](Cc1ccccc1)C(=O)N[C@@H](Cc1c[nH]cn1)C(=O)N1CCC[C@H]1C(=O)N[C@@H](CCCCN)C(=O)N[C@@H](CCCCN)C(N)=O)[C@@H](C)O` [FAM-PL] ({5FAM-Ahx}-SAVLQKKITDYFHPKK-NH2), the Kd at PCNA [2] was 107 nM.

With `NCc1ccc(CNCC(=O)N(CC(=O)N(CC(N)=O)Cc2ccc(CO)cc2)Cc2ccc3c(c2)OCO3)cc1` [NMma-NPip-NBal], on PCNA [1], the inhibitory constant (Ki) was 1120 ± 245 nM and the IC50 came out at 11700 ± 2550 nM.

Consider `NCCO` [NEal, ethanol amine], for which the “Disruption of PCNA-PL peptide binding” value on PCNA [1] is given as “none of the fragments showed any evidence of inhibition”.
